{
  "source": "patent US9862690B2",
  "about": "“Treatment of pulmonary and other conditions” (University of Pittsburgh—of the Commonwealth System of …, priority 2013, dated 2018)",
  "key": {"Nrf2": {"tested_on": "Nrf2", "assay": "Nrf2 DNA-binding activity and nuclear concentration in BEAS-2B cells", "format": "cell-based", "conditions": "different concentrations, 24 h", "experimental": "BEAS-2B cells were treated with varying concentrations of PB141 for 24 h, after which (A) Nrf2 activity was measured or (C) nuclear Nrf2 concentration was determined by Western blotting. (B) In other experiments cells were pretreated with varying concentrations of PB141 for 1 h, then with LPS (500 ng/ml) for 6 h. Cells were then isolated and activity of NF-κB was measured.\nBEAS-2B cells were cultured in Dulbecco's modified Eagle's medium (DMEM) containing 10% heat-inactivated fetal bovine serum, penicillin, and streptomycin (100 IU/ml). Monolayer cultures were treated with different concentrations of PB141 for 24 h. Cells were then isolated and the DNA-binding activity of the antioxidant transcription factor Nrf2 was determined. The nuclear concentration of Nrf2 was also determined by Western blotting. […] In some experiments monolayer cultures were deprived of serum for 24 h, pre-treated with different concentrations of PB141 for 1 h, then exposed to LPS for 6 h. Nuclear proteins were prepared and were used to quantify DNA-binding activity of the p65 subunit of NF-κB."}, "[1]": {"tested_on": "human lung fibroblasts (IMR-90; fibroblasts of normal or UIP patients)", "assay": "TGF-β-treated lung fibroblast proliferation and myofibroblast differentiation", "format": "cell-based", "conditions": "pretreatment 0.1 to 1 μM, then TGF-β 24 h", "experimental": "IMR-90 cells were cultured in Dulbecco's modified Eagle's medium (DMEM) containing 10% heat-inactivated fetal bovine serum, penicillin, and streptomycin (100 IU/ml). Monolayer cultures were deprived of serum for 24 h, and treated with different concentrations of PB141 for different time periods as indicated. Cell numbers were then counted at 24, 48, and 72 h. Data are representative of one of two independent experiments; n=3.\nIMR-90 cells were cultured in Dulbecco's modified Eagle's medium (DMEM) containing 10% heat-inactivated fetal bovine serum, penicillin, and streptomycin (100 IU/ml). Monolayer cultures were deprived of serum for 24 h, pre-treated with 0.5 μM PB141 or with vehicle (saline) for 1 h, and then exposed to 2 ng/ml TGF-β for 24 h. (A) Western blot analysis for α-smooth muscle actin. (B) Quantitative values for each condition. ***P<0.001 vs Veh. (C) Immunofluorescence microscopy for α-SMA following treatment. Blots and images are representative of two independent experiments.\nAdditional in vitro experiments were performed using normal human fetal lung fibroblasts (IMR-90; Institute for Medical Research, Camden, N.J.) or fibroblasts grown from mechanically dissociated surgical lung biopsy of histologically normal or usual interstitial pneumonia (UIP) patients. […]"}, "[2]": {"tested_on": "OVA allergen-induced asthma in mice", "assay": "Ovalbumin-induced asthma model", "format": "in vivo", "conditions": "25 mg/kg nebulized 30 min after each OVA challenge", "experimental": "Allergen-induced asthma was produced in mice by initial sensitization by intraperitoneal (i.p.) injection of OVA on days 0 and 7 and challenge by intratracheal injection of OVA on even-numbered days 14 through 22. Thirty minutes following each OVA challenge, PB141 (25 mg/kg) or vehicle (saline) was nebulized and delivered to cage air via a micropump nebulizer. Twenty-four hours after the last challenge and nebulization; airway hyperresponsiveness to increasing concentrations of inhaled methacholine was determined by the forced oscillation (flexiVent) method. (A) Airway resistance. (B) Airway elastance. Data are representative of one of two independent experiments with n=6-8 mice per group.\nAllergen induced asthma was produced in mice by initial sensitization by intraperitoneal (i.p.) injection of OVA on days 0 and 7 and challenge by intratracheal injection of OVA on even-numbered days 14 through 22. Thirty minutes after each OVA challenge, PB141 (25 mg/kg) or vehicle (saline) was nebulized and delivered to cage air via a micropump nebulizer. Twenty-four hours following the last challenge and nebulization, BAL fluid, plasma, and lung samples were obtained. (A) Total and differential cell count in BAL fluid. (B) Microscopic examination following staining of BAL fluid. (C) H2O2 production, (D) Protein concentration in BAL fluid. Data are representative of one of two independent experiments with n=7-10 mice per group; *** p<0.001.\nAllergen-induced asthma was produced in mice by initial sensitization by intraperitoneal (i.p.) injection of OVA on days 0 and 7 and challenge by intracheal injection of OVA on even-numbered days 14 through 22. Thirty minutes after each OVA challenge, PB141 (25 mg/kg) or vehicle (saline) was nebulized and delivered to cage air via a micropump nebulizer. Twenty-four hours following the last challenge and nebulization lung samples were obtained. The lung was examined histologically following (A) H&E staining, (B) trichrome staining, and (C) periodic acid Schiffs (PAS) staining. Data are representative of one of two independent experiments with n=7-10 mice per group.\nAllergen induced asthma was produced in mice by initial sensitization by intraperitoneal injection of OVA on days 0 and 7 and challenge by intratracheal injection of OVA on even-numbered days 14 through 22. […] Twenty-four hours following the last challenge and nebulization. airway hyperresponsiveness to methacholine challenge was measured noninvasively by whole body plethysmography (WBP; Buxco Research Systems, Wilmington, N.C.) and, invasively by computer-controlled ventilator (flexiVent; SCIREQ Inc., Montreal, Canada). Cellular Infiltration into the airspace was assessed by measuring myeloperoxidase activity in the lung and the number of polymorphonuclear neutrophils and eosinophils in bronchoalveolar lavage fluid (BALF). Lung inflammation was assessed by vascular permeability, edema, and cytokine generation. Anti-OVA IgE concentrations in the serum were measured using an ELISA kit (MD Bioproducts, St. Paul, Minn.). Lung histology sections were assessed by morphometry, with May-Grünwald-Giemsa or Periodic acid-Schiff (PAS) staining used for detection of mucopolysaccharide accumulation, Sirius Red or Masson's trichrome staining for detection of collagen deposition, and hematoxylin and eosin (H&E) staining for assessment of inflammation. Lung collagen content was determined by quantifying soluble collagen with the Sircol Collagen Assay Kit (Biocolor)."}},
  "data": [
    {"smiles": "CC(=O)N[C@@H](CSC(CC(=O)CC(SC[C@H](NC(C)=O)C(=O)O)c1cnccn1)c1cnccn1)C(=O)O", "note": "(stereo partly drawn) [PB141]", "values": [
      {"measurement": "DNA-binding activity of Nrf2", "setting": "Nrf2", "result": "increased both nuclear localization and DNA-binding activity of Nrf2 in a concentration-dependent manner"},
      {"measurement": "Nuclear localization of Nrf2 (Western blotting)", "setting": "Nrf2", "result": "increased both nuclear localization and DNA-binding activity of Nrf2 in a concentration-dependent manner"},
      {"measurement": "Proliferation of human lung fibroblasts", "setting": "[1]", "result": "inhibited"},
      {"measurement": "Differentiation to myofibroblasts (α-SMA)", "setting": "[1]; including UIP patient fibroblasts", "result": "inhibited"},
      {"measurement": "Airway hyperresponsiveness to methacholine", "setting": "[2]", "result": "significantly suppressed"},
      {"measurement": "Airway remodeling", "setting": "[2]", "result": "lessening"},
      {"measurement": "Expression of cytokines, chemokines, and IgE in BALF and serum", "setting": "[2]", "result": "attenuated"},
      {"measurement": "Infiltration of inflammatory cells into the airspace and lung", "setting": "[2]", "result": "suppressed"},
      {"measurement": "Mucus accumulation", "setting": "[2]", "result": "lessening"}
    ]}
  ]
}
